In US8461124B2, “Five- and six-membered conformationally locked 2′,4′-carbocyclic ribo-thymidines for the treatment of infections and cancer” (priority 2007, dated 2013):

Columns and labels:
complementary DNA = assay: Thermal denaturation (UV melting) of AON duplexes with complementary DNA; type: binding; details: for Tm/° C. with DNA: 1 μM of each strand, medium salt buffer pH 7.5, average of at least three runs; for ΔTm* (Tm relative to DNA compliment): relative to native AON 1/DNA duplex
complementary RNA = assay: Thermal denaturation (UV melting) of AON duplexes with complementary RNA; type: binding; details: for Tm/° C. with RNA: 1 μM of each strand, medium salt buffer pH 7.5, average of at least three runs; for ΔTm (Tm relative to RNA compliment): relative to native AON 1/RNA duplex
Method: All 17 modified AONs have been purified as a single component on PAGE (20% polyacrylamide with 7 Molar urea), extracted with 0.3 M NaOAc and desalted with C-18 reverse phase cartridge to give AONs in >99% purity and correct mass have been obtained by MALDI-TOF mass spectroscopy for each one them (Table 1). Determination of the Tm of the AON/RNA hybrids was carried out in the following buffer: 57 mM Tris-HCl (pH 7.5), 57 mM KCl, 1 mM MgCl2. Absorbance was monitored at 260 nm in the temperature range from 20° C. to 90° C. using UV spectrophotometer equipped with Peltier temperature programmer with the heating rate of 1° C. per minute. Prior to measurements, the samples (1 μM of AON and 1 μM RNA mixture) were pre-annealed by heating to 90° C. for 5 min followed by slow cooling to 4° C. and 30 min equilibration at this temperature and are average of at least three independent runs.

[1] = Stability of 5′-32P-labeled AONs in human blood serum (PAGE autoradiography); type: in vitro ADME
Method: FIG. 4. Autoradiograms of 20% denaturing PAGE showing degradation patterns of 5′-^32P-labeled AONs in human blood serum (Table 1 for all AON sequences). Inset A: AON 1 and LNA-modified AONs 2-5. Inset B: Carbocyclic-LNA-modified AONs 6-9. Inset C: Carbocyclic-ENA-modified AONs 10-13 and Inset D: aza-ENA-modified AONs 14-17. Time points are taken after 0, ½, 1 h, 2 h, 5 h, 7 h, 9 h, 12 h, for AONs 1-5 and 0 h, 6 h, 8 h, 12 h, 24 h, 36 h and 48 h of incubation for AONs 6-17 at 21° C. (see Experimental Section for details).
Modified sequences (Table 1), ^32P-labeled at 5′-ends, were digested in human blood serum at 21° C. as shown in the PAGE autoradiograms (Insets A, B, C and D in FIG. 4). In order to understand
AONs (6 μL) at 2 μM concentration (5′-end ^32P labeled with specific activity 80 000 cpm) were incubated in […] of human blood serum (male AB) at 21° C. (total reaction volume was 36 μL) and the experiments were repeated twice up to 48 h. Aliquots (3 μL) were taken at 0, 30 min, 1, 2, 5, 7, 8, 9, 12, 24, 36, 48 h and quenched with 7 μL of solution containing 8 M urea and 50 mM EDTA, resolved in 20% polyacrylamide denaturing (7 M urea) gel electrophoresis and visualized by autoradiography. […] Since no new prominent cleavage products were found toward the later time points, we considered those prominent stable initial fragments as 100% during the last time points (12-48 h).

E. coli RNase H1 = E. coli RNase H1 (Escherichia coli, UniProt P0A7Y4); details: AON/RNA duplex
E. coli RNase H1, sequence (P0A7Y4 whole entry): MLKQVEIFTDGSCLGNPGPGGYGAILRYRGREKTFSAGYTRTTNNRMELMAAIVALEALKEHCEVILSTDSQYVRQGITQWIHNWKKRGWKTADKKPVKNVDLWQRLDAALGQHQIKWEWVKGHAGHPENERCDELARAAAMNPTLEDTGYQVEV
Method: Autoradiograms of 20% denaturing PAGE, showing the cleavage kinetics of 5′-^32P-labeled target RNA by E. coli RNase H1 in the AONs 1-17 after 2, 5, 10, 15, 30 and 60 min of incubation. Conditions of cleavage reactions: RNA (0.8 μM) and AONs (4 μM) in buffer containing 20 nM Tris-HCL (pH 8.0), 20 mM KCL, 10 mM Mgcl2, and 0.1 mM DTT at 21° C.; 0.04 U of RNase H1. Inset A: LNA-T modified AONs 2-5 with native AON 1. Inset B: carbocyclic-LNA-T modified AONs 6-9. Inset C: carbocyclic-ENA-T modified AONs 10-13 with native AON 1. Inset D: aza-ENA-T modified AONs 14-17 with native AON 1. The graphs in Insets E, F, G, and H show the kinetics of RNase H1 mediated cleavage of the target RNA, the remaining fraction of target RNA is measured densitometrically and plotted as a function of time fitted to a single exponential decay function. Inset E: AON 1 with AONs 2-5. Inset F: for AON 1 with AONs 6-9. Inset G: AON 1 and AONs 10-13. Inset H: AON 1 and AONs 14-17.
The cleavage rates of RNase H digestion were determined by densitometric quantification of gels and subsequently by plotting the uncleaved RNA fraction as a function of time (Insets E-H in FIG. 6). The reaction rates were obtained by fitting the degradation curves to single-exponential decay functions.

3′-d(CTT(5-carbo)CTTTTTTACTTC)-5′ (antisense CTTCTTTTTTACTTC; carbocyclic-LNA-T at position 3 from 3'-end, chemistry not fully specified) [AON 6, carbocyclic-LNA-T modified AON, position 3 from 3′-end]
Tm/° C. with DNA (complementary DNA): 45 °C
ΔTm* (Tm relative to DNA compliment) (complementary DNA): 0.00 °C
Tm/° C. with RNA (complementary RNA): 47.5 °C
ΔTm (Tm relative to RNA compliment) (complementary RNA): +3.5 °C
time to give the n−1 fragment (hydrolysis of 3′-terminal nucleotide) ([1]; human blood serum, 21° C.): 2 h

3′-d(CTT(6-carbo)CTTTTTTACTTC)-5′ (antisense CTTCTTTTTTACTTC; carbocyclic-ENA-T at position 3 from 3'-end, chemistry not fully specified) [AON 10, carbocyclic-ENA-T modified AON, position 3 from 3′-end]
Tm/° C. with DNA (complementary DNA): 43.5 °C
ΔTm* (Tm relative to DNA compliment) (complementary DNA): −1.5 °C
Tm/° C. with RNA (complementary RNA): 45.5 °C
ΔTm (Tm relative to RNA compliment) (complementary RNA): +1.5 °C
time to give the n−1 fragment (hydrolysis of 3′-terminal nucleotide) ([1]; human blood serum, 21° C.): 2 h

3′-d(CTT(LNA)CTTTTTTACTTC)-5′ (antisense CTTCTTTTTTACTTC; LNA-T at position 3 from 3'-end, chemistry not fully specified) [AON 2, LNA-T modified AON, position 3 from 3′-end]
Tm/° C. with DNA (complementary DNA): 47 °C
ΔTm* (Tm relative to DNA compliment) (complementary DNA): +2 °C
Tm/° C. with RNA (complementary RNA): 48 °C
ΔTm (Tm relative to RNA compliment) (complementary RNA): +4 °C
serum stability compared with native AON 1 ([1]; human blood serum cleavage pattern): only slightly more stable than the native counterpart
time to full degradation ([1]; human blood serum, 21° C.): 9 h
time to give the n−1 fragment ([1]; human blood serum, 21° C.): 35 min
time to give the n−2 fragment as major product ([1]; human blood serum, 21° C.): 5 h

3′-d(CTT(aza-ENA)CTTTTTTACTTC)-5′ (antisense CTTCTTTTTTACTTC; aza-ENA-T at position 3 from 3'-end, chemistry not fully specified) [AON 14, aza-ENA-T modified AON, position 3 from 3′-end]
time to give the n−1 fragment (hydrolysis of 3′-terminal nucleotide) ([1]; human blood serum, 21° C.): ≤ 5 h
fraction of n−1 fragment ([1]; human blood serum, after 12 h): ca. 65%
fraction of n−2 fragment ([1]; human blood serum, after 12 h): ~35%
fraction of n−1 fragment ([1]; human blood serum, within 5 h): ca. 85%
fraction of n−2 fragment ([1]; human blood serum, within 5 h): ca. 15%

3′-d(CTTCT T(LNA)TTTTACTTC)-5′ [AON 3]
Tm/° C. with DNA (complementary DNA): 46.5 °C
ΔTm* (Tm relative to DNA compliment) (complementary DNA): +1.5 °C
Tm/° C. with RNA (complementary RNA): 49 °C
ΔTm (Tm relative to RNA compliment) (complementary RNA): +5 °C

3′-d(CTTCTT(5-carbo)TTTTACTTC)-5′ (antisense CTTCTTTTTTACTTC; carbocyclic-LNA-T at position 6 from 3'-end, chemistry not fully specified) [AON 7, carbocyclic-LNA-T modified AON, position 6 from 3′-end]
Tm/° C. with DNA (complementary DNA): 44 °C
ΔTm* (Tm relative to DNA compliment) (complementary DNA): −1.00 °C
Tm/° C. with RNA (complementary RNA): 49 °C
ΔTm (Tm relative to RNA compliment) (complementary RNA): +5 °C

3′-d(CTTCTT(6-carbo)TTTTACTTC)-5′ [AON 11]
Tm/° C. with DNA (complementary DNA): 39.5 °C
ΔTm* (Tm relative to DNA compliment) (complementary DNA): −5.5 °C
Tm/° C. with RNA (complementary RNA): 45.5 °C
ΔTm (Tm relative to RNA compliment) (complementary RNA): +1.5 °C

3′-d(CTTCTT(aza-ENA)TTTTACTTC)-5′ (antisense CTTCTTTTTTACTTC; aza-ENA-T at position 6 from 3'-end, chemistry not fully specified) [AON 15, aza-ENA-T modified AON, position 6 from 3′-end]
Tm/° C. with DNA (complementary DNA): 42.5 °C
ΔTm* (Tm relative to DNA compliment) (complementary DNA): −2.5 °C
Tm/° C. with RNA (complementary RNA): 46.5 °C
ΔTm (Tm relative to RNA compliment) (complementary RNA): +2.5 °C

3′-d(CTTCTTTT(5-carbo)TTACTTC)-5′ (antisense CTTCTTTTTTACTTC; carbocyclic-LNA-T at position 8 from 3'-end, chemistry not fully specified) [AON 8, carbocyclic-LNA-T modified AON, position 8 from 3′-end]
Tm/° C. with DNA (complementary DNA): 44 °C
ΔTm* (Tm relative to DNA compliment) (complementary DNA): −1.00 °C
Tm/° C. with RNA (complementary RNA): 48 °C
ΔTm (Tm relative to RNA compliment) (complementary RNA): +4 °C

3′-d(CTTCTTTT(6-carbo)TTACTTC)-5′ [AON 12]
Tm/° C. with DNA (complementary DNA): 40.0 °C
ΔTm* (Tm relative to DNA compliment) (complementary DNA): −5.0 °C
Tm/° C. with RNA (complementary RNA): 45.5 °C
ΔTm (Tm relative to RNA compliment) (complementary RNA): +1.5 °C

3′-d(CTTCTTTT(LNA)TTACTTC)-5′ (antisense CTTCTTTTTTACTTC; LNA-T at position 8 from 3'-end, chemistry not fully specified) [AON 4, LNA-T modified AON, position 8 from 3′-end]
Tm/° C. with DNA (complementary DNA): 45.0 °C
ΔTm* (Tm relative to DNA compliment) (complementary DNA): 0.0 °C
Tm/° C. with RNA (complementary RNA): 49 °C
ΔTm (Tm relative to RNA compliment) (complementary RNA): +5 °C

3′-d(CTTCTTTT(aza-ENA)TTACTTC)-5′ (antisense CTTCTTTTTTACTTC; aza-ENA-T at position 8 from 3'-end, chemistry not fully specified) [AON 16, aza-ENA-T modified AON, position 8 from 3′-end]
Tm/° C. with DNA (complementary DNA): 42 °C
ΔTm* (Tm relative to DNA compliment) (complementary DNA): −3 °C
Tm/° C. with RNA (complementary RNA): 47.5 °C
ΔTm (Tm relative to RNA compliment) (complementary RNA): +3.5 °C

3′-d(CTTCTTTTTT(5-carbo)ACTTC)-5′ (antisense CTTCTTTTTTACTTC; carbocyclic-LNA-T at position 10 from 3'-end, chemistry not fully specified) [AON 9, carbocyclic-LNA-T modified AON, position 10 from 3′-end]
Tm/° C. with DNA (complementary DNA): 43.0 °C
ΔTm* (Tm relative to DNA compliment) (complementary DNA): −2.00 °C
Tm/° C. with RNA (complementary RNA): 47.5 °C
ΔTm (Tm relative to RNA compliment) (complementary RNA): +3.5 °C

3′-d(CTTCTTTTTT(6-carbo)ACTTC)-5′ [AON 13]
Tm/° C. with DNA (complementary DNA): 39.5 °C
ΔTm* (Tm relative to DNA compliment) (complementary DNA): −5.5 °C
Tm/° C. with RNA (complementary RNA): 45.5 °C
ΔTm (Tm relative to RNA compliment) (complementary RNA): +1.5 °C

3′-d(CTTCTTTTTT(LNA)ACTTC)-5′ (antisense CTTCTTTTTTACTTC; LNA-T at position 10 from 3'-end, chemistry not fully specified) [AON 5, LNA-T modified AON, position 10 from 3′-end]
Tm/° C. with DNA (complementary DNA): 46 °C
ΔTm* (Tm relative to DNA compliment) (complementary DNA): +1 °C
Tm/° C. with RNA (complementary RNA): 49 °C
ΔTm (Tm relative to RNA compliment) (complementary RNA): +5 °C

3′-d(CTTCTTTTTT(aza-ENA)ACTTC)-5′ (antisense CTTCTTTTTTACTTC; aza-ENA-T at position 10 from 3'-end, chemistry not fully specified) [AON 17, aza-ENA-T modified AON, position 10 from 3′-end]
Tm/° C. with DNA (complementary DNA): 42 °C
ΔTm* (Tm relative to DNA compliment) (complementary DNA): −3 °C
Tm/° C. with RNA (complementary RNA): 48 °C
ΔTm (Tm relative to RNA compliment) (complementary RNA): +4 °C

3′-d(CTTCTTTTTTACTTC)-5′ (DNA, backbone not given here) [AON 1]
Tm/° C. with DNA (complementary DNA): 45 °C
Tm/° C. with RNA (complementary RNA): 44 °C
time to full degradation ([1]; human blood serum, 21° C.): ≤ 12 h
RNase H cleavage pattern of the RNA compliment (E. coli RNase H1): cleaved quite randomly with a slight preference after A-8 position

(1R,3R,4R,5R,7S)-7-(2-(Cyanoethoxy-(diisopropylamino)-phosphinoxy)-1-(4,4′-dimethoxytrityloxy methyl)-3-(thymin-1-yl)-2-oxa-bicyclo[2.2.1]heptane [Compound 14]
Tm/° C. with DNA (complementary DNA): 44.5 °C
ΔTm* (Tm relative to DNA compliment) (complementary DNA): −0.5 °C
Tm/° C. with RNA (complementary RNA): 48 °C
ΔTm (Tm relative to RNA compliment) (complementary RNA): +4 °C
